{"source": "patent US10770169B2", "about": "“Method of providing a treatment to a subject based on a dynamic pathway map” (THE REGENTS OF THE UNIVERSITY OF CALIFORNIA, priority 2010, dated 2020)", "type_in_all_cases": "cell-based, human", "key": {"[1]": {"test_system": "panel of 55 breast cancer cell lines", "assay": "Cell growth inhibition assay (Cell Titer Glo, 72 h, 9 doses; GI50, TGI, LC50)", "details": "value is the negative log10 of mol/L"}, "[2]": {"test_system": "luminal, basal, claudin-low and ERBB2AMP breast cancer cell lines", "assay": "Associations of clinically relevant subtypes and response (non-parametric ANOVA or t-test on GI50 ranks)", "details": "Table 6; most sensitive subtype, FDR p<0.20", "in_short": "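GI50 values were compared between cell-line subtype groups by non-parametric ANOVA or t-test on ranks. P-values from three test sets were combined and FDR-corrected. Significant three-group effects were followed by post-hoc comparison of each group against all others, and FDR p<0.20 counted as significant.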"}, "[3]": {"test_system": "breast cancer cell lines with aberrant vs normal copy number", "assay": "Association of recurrent copy number changes and response (t-test on GI50)", "details": "FDR p<0.2", "from_the_text": "We used a t-test to assess the association between recurrent copy number changes (at 8q24 (MYC), 11q13 (CCND1), 20q13 (STK15/AURKA)) and drug sensitivity. We combined into a single group cell lines with low or no amplification and compared them to cell lines with high amplification. […] Cell lines for which the GI50 was equal to the maximum concentration tested were omitted from analysis. We omitted compounds where any group had fewer than five samples."}}, "note": "“Also recorded” adds a separate entry of the source.", "data": [{"smiles": "N.N.O=C([O-])C1(C(=O)[O-])CCC1.[Pt+2]", "note": "[Carboplatin]", "values": [{"measurement": "GI50", "setting": "[1]; 600MPE cell line, censored GI50 values", "value": 3.82}, {"measurement": "GI50", "setting": "[1]; AU565 cell line, censored GI50 values", "value": 4.94}, {"measurement": "GI50", "setting": "[1]; BT474 cell line, censored GI50 values", "value": 3.98}, {"measurement": "GI50", "setting": "[1]; BT483 cell line, censored GI50 values", "value": 5.82}, {"measurement": "GI50", "setting": "[1]; BT549 cell line, censored GI50 values", "value": 4.58}, {"measurement": "GI50", "setting": "[1]; CAMA1 cell line, censored GI50 values", "value": 3.72}, {"measurement": "GI50", "setting": "[1]; HCC38 cell line, censored GI50 values", "value": 4.76}, {"measurement": "GI50", "setting": "[1]; HCC70 cell line, censored GI50 values", "value": 4.82}, {"measurement": "GI50", "setting": "[1]; HCC202 cell line, censored GI50 values", "value": 4.44}, {"measurement": "GI50", "setting": "[1]; HCC1143 cell line, censored GI50 values", "value": 3.85}, {"measurement": "GI50", "setting": "[1]; HCC1187 cell line, censored GI50 values", "value": 4.66}, {"measurement": "GI50", "setting": "[1]; HCC1395 cell line, censored GI50 values", "value": 5.00}, {"measurement": "GI50", "setting": "[1]; HCC1419 cell line, censored GI50 values", "value": 4.15}, {"measurement": "GI50", "setting": "[1]; HCC1428 cell line, censored GI50 values", "value": 3.86}, {"measurement": "GI50", "setting": "[1]; HCC1500 cell line, censored GI50 values", "value": 4.69}, {"measurement": "GI50", "setting": "[1]; HCC1806 cell line, censored GI50 values", "value": 4.80}, {"measurement": "GI50", "setting": "[1]; HCC1937 cell line, censored GI50 values", "value": 4.44}, {"measurement": "GI50", "setting": "[1]; HCC1954 cell line, censored GI50 values", "value": 4.37}, {"measurement": "GI50", "setting": "[1]; HCC2185 cell line, censored GI50 values", "value": 4.69}, {"measurement": "GI50", "setting": "[1]; HCC3153 cell line, censored GI50 values", "value": 4.45}, {"measurement": "GI50", "setting": "[1]; LY2 cell line, censored GI50 values", "value": 4.39}, {"measurement": "GI50", "setting": "[1]; MCF7 cell line, censored GI50 values", "value": 3.77}, {"measurement": "GI50", "setting": "[1]; MDAMB134VI cell line, censored GI50 values", "value": 3.73}, {"measurement": "GI50", "setting": "[1]; MDAMB157 cell line, censored GI50 values", "value": 4.07}, {"measurement": "GI50", "setting": "[1]; MDAMB175VII cell line, censored GI50 values", "value": 4.44}, {"measurement": "GI50", "setting": "[1]; MDAMB231 cell line, censored GI50 values", "value": 4.09}, {"measurement": "GI50", "setting": "[1]; MDAMB361 cell line, censored GI50 values", "value": 4.34}, {"measurement": "GI50", "setting": "[1]; MDAMB415 cell line, censored GI50 values", "value": 3.73}, {"measurement": "GI50", "setting": "[1]; MDAMB436 cell line, censored GI50 values", "value": 4.18}, {"measurement": "GI50", "setting": "[1]; MDAMB453 cell line, censored GI50 values", "value": 4.23}, {"measurement": "GI50", "setting": "[1]; MDAMB468 cell line, censored GI50 values", "value": 4.31}, {"measurement": "GI50", "setting": "[1]; SKBR3 cell line, censored GI50 values", "value": 4.87}, {"measurement": "GI50", "setting": "[1]; SUM52PE cell line, censored GI50 values", "value": 4.71}, {"measurement": "GI50", "setting": "[1]; SUM149PT cell line, censored GI50 values", "value": 4.87}, {"measurement": "GI50", "setting": "[1]; SUM159PT cell line, censored GI50 values", "value": 4.55}, {"measurement": "GI50", "setting": "[1]; SUM185PE cell line, censored GI50 values", "value": 3.90}, {"measurement": "GI50", "setting": "[1]; SUM1315MO2 cell line, censored GI50 values", "value": 4.56}, {"measurement": "GI50", "setting": "[1]; T47D cell line, censored GI50 values", "value": 3.95}, {"measurement": "GI50", "setting": "[1]; UACC812 cell line, censored GI50 values", "value": 4.81}, {"measurement": "GI50", "setting": "[1]; ZR75B cell line, censored GI50 values", "value": 3.52}, {"measurement": "GI50", "setting": "[1]; ZR751 cell line, censored GI50 values", "value": 4.07}, {"measurement": "GI50", "setting": "[1]; ZR7530 cell line, censored GI50 values", "value": 4.55}, {"measurement": "GI50", "setting": "[1]; cell line 600MPE", "value": 3.82}, {"measurement": "GI50", "setting": "[1]; cell line AU565", "value": 4.94}, {"measurement": "GI50", "setting": "[1]; cell line BT474", "value": 3.98}, {"measurement": "GI50", "setting": "[1]; cell line BT483", "value": 5.82}, {"measurement": "GI50", "setting": "[1]; cell line BT549", "value": 4.58}, {"measurement": "GI50", "setting": "[1]; cell line CAMA1", "value": 3.72}, {"measurement": "GI50", "setting": "[1]; cell line HCC38", "value": 4.76}, {"measurement": "GI50", "setting": "[1]; cell line HCC70", "value": 4.82}, {"measurement": "GI50", "setting": "[1]; cell line HCC202", "value": 4.44}, {"measurement": "GI50", "setting": "[1]; cell line HCC1143", "value": 3.85}, {"measurement": "GI50", "setting": "[1]; cell line HCC1187", "value": 4.66}, {"measurement": "GI50", "setting": "[1]; cell line HCC1395", "value": 5.00}, {"measurement": "GI50", "setting": "[1]; cell line HCC1419", "value": 4.15}, {"measurement": "GI50", "setting": "[1]; cell line HCC1428", "value": 3.86}, {"measurement": "GI50", "setting": "[1]; cell line HCC1500", "value": 4.69}, {"measurement": "GI50", "setting": "[1]; cell line HCC1806", "value": 4.80}, {"measurement": "GI50", "setting": "[1]; cell line HCC1937", "value": 4.44}, {"measurement": "GI50", "setting": "[1]; cell line HCC1954", "value": 4.37}, {"measurement": "GI50", "setting": "[1]; cell line HCC2185", "value": 4.69}, {"measurement": "GI50", "setting": "[1]; cell line HCC3153", "value": 4.45}, {"measurement": "GI50", "setting": "[1]; cell line LY2", "value": 4.39}, {"measurement": "GI50", "setting": "[1]; cell line MCF7", "value": 3.77}, {"measurement": "GI50", "setting": "[1]; cell line MDAMB134V", "value": 3.73}, {"measurement": "GI50", "setting": "[1]; cell line MDAMB157", "value": 4.07}, {"measurement": "GI50", "setting": "[1]; cell line MDAMB175V", "value": 4.44}, {"measurement": "GI50", "setting": "[1]; cell line MDAMB231", "value": 4.09}, {"measurement": "GI50", "setting": "[1]; cell line MDAMB361", "value": 4.34}, {"measurement": "GI50", "setting": "[1]; cell line MDAMB415", "value": 3.73}, {"measurement": "GI50", "setting": "[1]; cell line MDAMB436", "value": 4.18}, {"measurement": "GI50", "setting": "[1]; cell line MDAMB453", "value": 4.23}, {"measurement": "GI50", "setting": "[1]; cell line MDAMB468", "value": 4.31}, {"measurement": "GI50", "setting": "[1]; cell line SKBR3", "value": 4.87}, {"measurement": "GI50", "setting": "[1]; cell line SUM52PE", "value": 4.71}, {"measurement": "GI50", "setting": "[1]; cell line SUM149PT", "value": 4.87}, {"measurement": "GI50", "setting": "[1]; cell line SUM159PT", "value": 4.55}, {"measurement": "GI50", "setting": "[1]; cell line SUM185PE", "value": 3.90}, {"measurement": "GI50", "setting": "[1]; cell line SUM1315MO", "value": 4.56}, {"measurement": "GI50", "setting": "[1]; cell line T47D", "value": 3.95}, {"measurement": "GI50", "setting": "[1]; cell line UACC812", "value": 4.81}, {"measurement": "GI50", "setting": "[1]; cell line UACC893", "value": 3.04}, {"measurement": "GI50", "setting": "[1]; cell line ZR75B", "value": 3.52}, {"measurement": "GI50", "setting": "[1]; cell line ZR751", "value": 4.07}, {"measurement": "GI50", "setting": "[1]; cell line ZR7530", "value": 4.55}, {"measurement": "Subtype specificity", "setting": "[2]", "value": "Basal + Claudin-low"}, {"measurement": "association of response with amplification at 11q13 (CCND1)", "setting": "[3]", "value": "associated with sensitivity; also recorded: associated with response"}]}]}
